These results are taken from ChEMBL document CHEMBL4680112, “Synthesis and Structure-Activity Relationships of Inhibitors That Target the C-Terminal MEEVD on Heat Shock Protein 90” (ACS Med Chem Lett, 2018).

Molecules are shown by their SMILES. Active and inactive are the calls of the source. The calls are words filed in the database; no cut-off is given here. Non-standard residues stand in square brackets, D forms with d. Residues, ends and D or L forms follow the SMILES beside them.

The target of the first assay is T1, Heat shock protein HSP 90-beta (Homo sapiens, UniProt P08238). Kind of assay: Inhibition of C-terminal HSP90beta (527 to 724 residues) (unknown origin) interaction with CYP40 measured after 30 mins by Alphascreen assay.
T1 sequence (P08238 whole entry, the tested form may be a part): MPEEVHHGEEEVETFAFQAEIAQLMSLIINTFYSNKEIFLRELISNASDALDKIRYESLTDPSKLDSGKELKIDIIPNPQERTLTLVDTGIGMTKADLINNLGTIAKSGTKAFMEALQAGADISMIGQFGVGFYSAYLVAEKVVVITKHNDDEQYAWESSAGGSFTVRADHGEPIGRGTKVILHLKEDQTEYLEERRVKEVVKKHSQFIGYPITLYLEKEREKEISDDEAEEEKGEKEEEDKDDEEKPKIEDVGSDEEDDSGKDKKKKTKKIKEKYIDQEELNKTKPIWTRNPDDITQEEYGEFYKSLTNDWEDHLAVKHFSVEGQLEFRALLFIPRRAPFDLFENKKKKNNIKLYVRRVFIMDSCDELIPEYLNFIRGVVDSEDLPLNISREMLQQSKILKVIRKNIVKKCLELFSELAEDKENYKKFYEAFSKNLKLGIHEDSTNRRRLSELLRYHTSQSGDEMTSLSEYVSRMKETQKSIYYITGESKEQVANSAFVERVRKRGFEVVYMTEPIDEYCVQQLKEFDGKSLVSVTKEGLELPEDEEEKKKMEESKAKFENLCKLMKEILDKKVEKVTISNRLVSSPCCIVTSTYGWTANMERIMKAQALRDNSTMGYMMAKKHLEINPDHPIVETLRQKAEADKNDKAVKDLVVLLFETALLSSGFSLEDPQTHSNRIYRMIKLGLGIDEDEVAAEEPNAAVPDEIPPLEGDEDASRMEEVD
Settings: not given
In general, IC50 refers to the concentration that inhibits the measured activity by half. Low values mean greater potency, high ones weaker potency. Compound `CC[C@H](C)[C@H](NC(=O)[C@H](CCCNC(=N)N)NC(=O)[C@H](C)NC(=O)[C@H](Cc1ccc(O)cc1)NC(=O)[C@H](C)NC(=O)[C@@H](N)CCCCN)C(=O)NCC(=O)N[C@@H](CC(N)=O)C(=O)N[C@@H](CO)C(=O)N[C@@H](Cc1ccc(O)cc1)C(=O)N[C@@H](Cc1ccccc1)C(=O)N[C@@H](CCCCN)C(=O)O` came in with an IC50 of 50 µM.

For a further assay, the target named is T1, Heat shock protein HSP 90-beta. Kind of assay: Potency index, ratio of Kawakami-peptide IC50 to LB51 IC50 C-terminal HSP90beta (527 to 724 residues) (unknown origin) interaction with CYP40 measured after 30 mins by Alphascreen assay.
Settings: not given
On the technique in general: Alpha assays give light when donor and acceptor beads are brought close together.
As for `NCCCC[C@@H]1NC(=O)[C@H](Cc2ccccc2)NC(=O)[C@H](Cc2ccc(O)cc2)NC(=O)[C@H](CO)NC(=O)[C@H](CC(N)=O)NC1=O` (cyclo(KNSYF)), the Ratio IC50 is > 10.

The target is the same in the next assay. Kind of assay: Inhibition of C-terminal HSP90beta (527 to 724 residues) (unknown origin) interaction with CYP40 at 1 to 25 uM measured after 30 mins by AlphaLISA assay. To be noted: dose 1-25 µM.
Consider `C[C@H]1NC(=O)[C@H](CCCCN)NC(=O)[C@H](Cc2ccccc2)NC(=O)[C@H](Cc2ccc(O)cc2)NC(=O)[C@H](CO)NC1=O`, for which the inhibition result was “inactive”.

`C[C@@H]1NC(=O)[C@H](CC(N)=O)NC(=O)[C@H](CCCCN)NC(=O)[C@H](Cc2ccccc2)NC(=O)[C@H](Cc2ccc(O)cc2)NC1=O` (cyclo(AYFKN)): the inhibition result was “Active”.

Turning to `NCCCC[C@@H]1NC(=O)[C@H](Cc2ccccc2)NC(=O)[C@H](Cc2ccc(O)cc2)NC(=O)[C@H](CO)NC(=O)[C@H](CC(=O)O)NC1=O` (cyclo(DSYFK)), the inhibition result was “inactive”.

`NCCCC[C@@H]1NC(=O)[C@H](Cc2ccccc2)NC(=O)[C@H](Cc2ccc(O)cc2)NC(=O)[C@H](CO)NC(=O)[C@H](Cc2ccccc2)NC1=O` (cyclo(FKFSY)): the inhibition result was “Active”.

As to `CC(C)C[C@@H]1NC(=O)[C@H](CCCCN)NC(=O)[C@H](Cc2ccccc2)NC(=O)[C@H](Cc2ccc(O)cc2)NC(=O)[C@H](CO)NC1=O` (cyclo(FKLSY)), the inhibition entry was “inactive”.

As for `NCCCC[C@@H]1NC(=O)[C@H](Cc2ccccc2)NC(=O)[C@H](Cc2ccc(O)cc2)NC(=O)[C@@H](CO)NC(=O)[C@H](CC(N)=O)NC1=O` (cyclo(FKN[dS]Y)), the inhibition entry was “inactive”.

For the compound `NCCCC[C@@H]1NC(=O)[C@H](Cc2ccccc2)NC(=O)[C@H](Cc2ccc(O)cc2)NC(=O)[C@H](CO)NC(=O)[C@@H](CC(N)=O)NC1=O` (cyclo(FK[dN]SY)), the inhibition entry was “inactive”.

Regarding `NCCCC[C@@H]1NC(=O)[C@@H](Cc2ccccc2)NC(=O)[C@H](Cc2ccc(O)cc2)NC(=O)[C@H](CO)NC(=O)[C@H](CC(N)=O)NC1=O` (cyclo(KNSY[dF])), the inhibition entry was “inactive”.
